Marks after values point to notes of the source that are not given here.
Test system: ZR75-1 cells
Assay: Immuno-staining of protein expression and protein phosphorylation, ZR75-1 cells
Type: cell-based
Parameters: ATM level / P-317 (ULK1) level / Beclin1 level / ATG5 level / HDAC8 level / BIM level: scale not given here
Experimental: ZR75-1 and MCF7 cells were treated with vehicle control, GZ17-6.02, Palbociclib or the drugs combined for 3 hours and for 6 hours. Cells were fixed in place and immuno-staining performed with in house validated antibodies to detect protein expression and protein phosphorylation.

CC(=O)c1c(C)c2cnc(Nc3ccc(N4CCNCC4)cn3)nc2n(C2CCCC2)c1=O [PALBO, Palbociclib]
AKT level (ZR75, 3 h): 100 | AMPKa level (ZR75, 3 h): 100 | ATG5 level (ZR75, 3 h): 107 | ATG13 level (ZR75, 3 h): 101 | ATM level (ZR75, 3 h): 99 | BAK level (ZR75, 3 h): 107 | BAX level (ZR75, 3 h): 106 | BCL-XL level (ZR75, 3 h): 94 | BIM level (ZR75, 3 h): 109 | Beclin1 level (ZR75, 3 h): 112 | CD95 level (ZR75, 3 h): 100 | CHOP level (ZR75, 3 h): 107 | Cyclin D level (ZR75, 3 h): 108 | Cyclin E level (ZR75, 3 h): 103 | ER level (ZR75, 3 h): 100 | ERBB1 level (ZR75, 3 h): 99 | ERBB2 level (ZR75, 3 h): 99 | ERBB3 level (ZR75, 3 h): 100 | ERK1/2 level (ZR75, 3 h): 100 | ERK2 level (ZR75, 3 h): 100 | ERRB4 level (ZR75, 3 h): 100 | FAS-L level (ZR75, 3 h): 108 | GRP78 level (ZR75, 3 h): 108 | HDAC1 level (ZR75, 3 h): 101 | HDAC2 level (ZR75, 3 h): 99 | HDAC3 level (ZR75, 3 h): 96 | HDAC4 level (ZR75, 3 h): 100 | HDAC5 level (ZR75, 3 h): 98 | HDAC6 level (ZR75, 3 h): 99 | HDAC7 level (ZR75, 3 h): 101 | HDAC8 level (ZR75, 3 h): 100 | HDAC9 level (ZR75, 3 h): 101 | HDAC10 level (ZR75, 3 h): 98 | HDAC11 level (ZR75, 3 h): 96 | IDO1 level (ZR75, 3 h): 96 | JAK2 level (ZR75, 3 h): 100 | JNK1/2 level (ZR75, 3 h): 100 | LATS1/2 level (ZR75, 3 h): 98 | MCL1 level (ZR75, 3 h): 96 | MHCA level (ZR75, 3 h): 102 | NEDD4 level (ZR75, 3 h): 100 | NFkB level (ZR75, 3 h): 100 | ODC level (ZR75, 3 h): 100 | P-89 (TAZ) level (ZR75, 3 h): 101 | P-109 (YAP) level (ZR75, 3 h): 101 | P-127 (YAP) level (ZR75, 3 h): 100 | P-317 (ULK1) level (ZR75, 3 h): 112 | P-397 (YAP) level (ZR75, 3 h): 98 | P-757 (ULK1) level (ZR75, 3 h): 96 | P-909 (LATS1/2) level (ZR75, 3 h): 98 | P-1079 (LATS1/2) level (ZR75, 3 h): 101 | P-AMPKa level (ZR75, 3 h): 115# | P-ATG13 level (ZR75, 3 h): 113# | P-ATM level (ZR75, 3 h): 106 | P-ERBB1 level (ZR75, 3 h): 101 | P-ERBB2 level (ZR75, 3 h): 96 | P-ERBB3 level (ZR75, 3 h): 115# | P-ERBB4 level (ZR75, 3 h): 107 | P-ERK level (ZR75, 3 h): 97 | P-JAK2 level (ZR75, 3 h): 100 | P-JNK level (ZR75, 3 h): 90 | P-KIT level (ZR75, 3 h): 100 | P-MET level (ZR75, 3 h): 101 | P-NFkB level (ZR75, 3 h): 100 | P-PDGFRb level (ZR75, 3 h): 100 | P-PERK level (ZR75, 3 h): 111 | P-S2448 (mTOR) level (ZR75, 3 h): 97 | P-S2481 (mTOR) level (ZR75, 3 h): 96 | P-T308 (AKT) level (ZR75, 3 h): 106 | P-Y694 (STAT5) level (ZR75, 3 h): 100 | P-Y705 (STAT3) level (ZR75, 3 h): 99 | P-eIF2a level (ZR75, 3 h): 110 | P-p38 level (ZR75, 3 h): 101 | P-p70 T389 level (ZR75, 3 h): 100 | PD-L1 level (ZR75, 3 h): 100 | PD-L2 level (ZR75, 3 h): 100 | PDGFRb level (ZR75, 3 h): 100 | PERK level (ZR75, 3 h): 101 | PP1 level (ZR75, 3 h): 99 | PTEN level (ZR75, 3 h): 101 | STAT3 level (ZR75, 3 h): 100 | STAT5 level (ZR75, 3 h): 100 | TAZ level (ZR75, 3 h): 100 | ULK1 level (ZR75, 3 h): 100 | Y416 (c-SRC) level (ZR75, 3 h): 101 | Y527 (c-SRC) level (ZR75, 3 h): 99 | YAP level (ZR75, 3 h): 98 | c-KIT level (ZR75, 3 h): 100 | c-MET level (ZR75, 3 h): 100 | c-SRC level (ZR75, 3 h): 101 | eIF2a level (ZR75, 3 h): 99 | mTOR level (ZR75, 3 h): 101 | p38 level (ZR75, 3 h): 100 | p70 S6K level (ZR75, 3 h): 100 | P-ERBB3 level (ZR75, 3 h, listed as Palbo): 115 | AKT level (ZR75, 6 h): 101 | AMPKa level (ZR75, 6 h): 100 | ATG5 level (ZR75, 6 h): 114# | ATG13 level (ZR75, 6 h): 100 | ATM level (ZR75, 6 h): 100 | BAK level (ZR75, 6 h): 109 | BAX level (ZR75, 6 h): 108 | BCL-XL level (ZR75, 6 h): 91 | BIM level (ZR75, 6 h): 113# | Beclin1 level (ZR75, 6 h): 118# | CD95 level (ZR75, 6 h): 101 | CHOP level (ZR75, 6 h): 109 | Cyclin D level (ZR75, 6 h): 107 | Cyclin E level (ZR75, 6 h): 105 | ER level (ZR75, 6 h): 99 | ERBB1 level (ZR75, 6 h): 100 | ERBB2 level (ZR75, 6 h): 100 | ERBB3 level (ZR75, 6 h): 99 | ERK1/2 level (ZR75, 6 h): 100 | ERK2 level (ZR75, 6 h): 99 | ERRB4 level (ZR75, 6 h): 99 | FAS-L level (ZR75, 6 h): 109 | GRP78 level (ZR75, 6 h): 112 | HDAC1 level (ZR75, 6 h): 102 | HDAC2 level (ZR75, 6 h): 95 | HDAC3 level (ZR75, 6 h): 97 | HDAC4 level (ZR75, 6 h): 100 | HDAC5 level (ZR75, 6 h): 101 | HDAC6 level (ZR75, 6 h): 98 | HDAC7 level (ZR75, 6 h): 102 | HDAC8 level (ZR75, 6 h): 99 | HDAC9 level (ZR75, 6 h): 101 | HDAC10 level (ZR75, 6 h): 100 | HDAC11 level (ZR75, 6 h): 100 | IDO1 level (ZR75, 6 h): 100 | JAK2 level (ZR75, 6 h): 100 | JNK1/2 level (ZR75, 6 h): 100 | LATS1/2 level (ZR75, 6 h): 99 | MCL1 level (ZR75, 6 h): 91 | MHCA level (ZR75, 6 h): 103 | NEDD4 level (ZR75, 6 h): 97 | NFkB level (ZR75, 6 h): 101 | ODC level (ZR75, 6 h): 98 | P-89 (TAZ) level (ZR75, 6 h): 101 | P-109 (YAP) level (ZR75, 6 h): 105 | P-127 (YAP) level (ZR75, 6 h): 106 | P-317 (ULK1) level (ZR75, 6 h): 114# | P-397 (YAP) level (ZR75, 6 h): 99 | P-757 (ULK1) level (ZR75, 6 h): 97 | P-909 (LATS1/2) level (ZR75, 6 h): 109 | P-1079 (LATS1/2) level (ZR75, 6 h): 102 | P-AMPKa level (ZR75, 6 h): 117# | P-ATG13 level (ZR75, 6 h): 121# | P-ATM level (ZR75, 6 h): 109 | P-ERBB1 level (ZR75, 6 h): 100 | P-ERBB2 level (ZR75, 6 h): 98 | P-ERBB3 level (ZR75, 6 h): 116# | P-ERBB4 level (ZR75, 6 h): 101 | P-ERK level (ZR75, 6 h): 99 | P-JAK2 level (ZR75, 6 h): 99 | P-JNK level (ZR75, 6 h): 88 | P-KIT level (ZR75, 6 h): 100 | P-MET level (ZR75, 6 h): 99 | P-NFkB level (ZR75, 6 h): 98 | P-PDGFRb level (ZR75, 6 h): 98 | P-PERK level (ZR75, 6 h): 111 | P-S2448 (mTOR) level (ZR75, 6 h): 98 | P-S2481 (mTOR) level (ZR75, 6 h): 98 | P-T308 (AKT) level (ZR75, 6 h): 106 | P-Y694 (STAT5) level (ZR75, 6 h): 99 | P-Y705 (STAT3) level (ZR75, 6 h): 99 | P-eIF2a level (ZR75, 6 h): 109 | P-p38 level (ZR75, 6 h): 100 | P-p70 T389 level (ZR75, 6 h): 101 | PD-L1 level (ZR75, 6 h): 99 | PD-L2 level (ZR75, 6 h): 104 | PDGFRb level (ZR75, 6 h): 100 | PERK level (ZR75, 6 h): 99 | PP1 level (ZR75, 6 h): 99 | PTEN level (ZR75, 6 h): 101 | STAT3 level (ZR75, 6 h): 99 | STAT5 level (ZR75, 6 h): 99 | TAZ level (ZR75, 6 h): 102 | ULK1 level (ZR75, 6 h): 100 | Y416 (c-SRC) level (ZR75, 6 h): 102 | Y527 (c-SRC) level (ZR75, 6 h): 98 | YAP level (ZR75, 6 h): 99 | c-KIT level (ZR75, 6 h): 100 | c-MET level (ZR75, 6 h): 101 | c-SRC level (ZR75, 6 h): 101 | eIF2a level (ZR75, 6 h): 100 | mTOR level (ZR75, 6 h): 100 | p38 level (ZR75, 6 h): 99 | p70 S6K level (ZR75, 6 h): 99 | P-ERBB3 level (ZR75, 6 h, listed as Palbo): 116 | increase in the levels of cyclin D and cyclin E (ZR75 and MCF7, 3 h and 6 h, trend): 5-10%

Reference: patent US20220008359A1, “COMBINATION ANTI-CANCER PRODUCTS AND METHODS” (priority 2020, published 2022)
